Reference: PubChem BioAssay (NCI)
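Results reflect a 48-hour exposure of cells in 96-well plates to compound at five concentrations. GI50 marks 50% less growth. Definition used: TGI = concentration required for complete inhibition of growth.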 Where a SMILES comes first, the peptide text is derived from it. The star is where a group is joined. Cbz = O=C(OCc1ccccc1)*; CH2Cl = ClC*

Key:
Assay in all cases: growth of human tumour cells (NCI), 48 h
MOLT-4 leukemia = system: MOLT-4 leukemia
SK-OV-3 ovarian = system: SK-OV-3 ovarian
MDA-MB-231 breast = system: MDA-MB-231 breast
HS 578T breast = system: HS 578T breast
TK-10 renal = system: TK-10 renal
HCT-15 colon = system: HCT-15 colon
HL-60(TB) leukemia = system: HL-60(TB) leukemia
HCT-116 colon = system: HCT-116 colon
NCI/ADR-RES ovarian = system: NCI/ADR-RES ovarian
SF-295 CNS = system: SF-295 CNS

| Compound | GI50 (MOLT-4 leukemia) | TGI (MOLT-4 leukemia) | GI50 (SK-OV-3 ovarian) | TGI (SK-OV-3 ovarian) | GI50 (MDA-MB-231 breast) | TGI (MDA-MB-231 breast) | GI50 (HS 578T breast) | TGI (HS 578T breast) | GI50 (TK-10 renal) | TGI (TK-10 renal) | GI50 (HCT-15 colon) | TGI (HCT-15 colon) | GI50 (HL-60(TB) leukemia) | TGI (HL-60(TB) leukemia) | GI50 (HCT-116 colon) | TGI (HCT-116 colon) | GI50 (NCI/ADR-RES ovarian) | TGI (NCI/ADR-RES ovarian) | GI50 (SF-295 CNS) | TGI (SF-295 CNS) |
| --- | --- | --- | --- | --- | --- | --- | --- | --- | --- | --- | --- | --- | --- | --- | --- | --- | --- | --- | --- | --- |
| O=C1OCC2=C1C(c1cccc(Br)c1)c1cc3c(cc1N2CCO)CCC3 (centres undefined) | 0.262 µM | 14.2 µM | 0.102 µM | 1.58 µM | 0.191 µM | 1.22 µM | 0.151 µM | 11.4 µM | 0.736 µM | 11.3 µM | 0.114 µM | 7.14 µM | 0.0763 µM | 0.444 µM | 0.0904 µM | 3.04 µM | 0.025 µM | 0.234 µM | 0.034 µM | 8.36 µM |
| COc1cc(Cn2c(-c3ccccc3)c(Cl)c3c2-c2oncc2CC3)cc(OC)c1 | 3.43 µM | > 100 µM | 15.2 µM | > 100 µM | 11.4 µM | 44.9 µM | 3.71 µM | 82.3 µM | 26.5 µM | > 100 µM | 4.84 µM | > 100 µM | 3.32 µM | 38.6 µM | 3.47 µM | 14.9 µM | 2.58 µM | 8.96 µM | 3.05 µM | > 100 µM |
| CC(C)CC(NC(=O)OCc1ccccc1)C(=O)NC(Cc1ccccc1)C(=O)CCl (stereo not drawn) (Cbz-Leu-Phe-CH2Cl; configuration not given here) |  | 4.33 µM |  | 16.1 µM |  | 3.3 µM |  | 25.7 µM |  | 3.24 µM |  | 3.34 µM |  | 3.53 µM |  | 3.31 µM |  | 11.4 µM |  | 43.7 µM |
| COc1ccc(/C=C2/N=C(c3ccccc3)N(c3c(C)n(C)n(-c4ccccc4)c3=O)C2=O)cc1OC | 78.3 µM | > 100 µM | > 100 µM | > 100 µM | > 100 µM | > 100 µM | 60 µM | > 100 µM | > 100 µM | > 100 µM | > 100 µM | > 100 µM | > 100 µM | > 100 µM | > 100 µM | > 100 µM | > 100 µM | > 100 µM | > 100 µM | > 100 µM |
| COc1cc2c(cc1OCCCNC(=O)c1cccc3c(=O)c4ccccc4[nH]c13)N=C[C@@H]1CCCN1C2=O | 4.03 µM | > 100 µM | 5.58 µM | > 100 µM | < 0.01 µM | < 0.0484 µM | < 0.01 µM | 0.121 µM | < 0.0434 µM | 2.66 µM | 0.114 µM | > 100 µM |  | > 77 µM | < 0.01 µM | > 100 µM | 0.379 µM | > 26.4 µM | < 0.0508 µM | 4.46 µM |
